Source: paper PMC6325233, “A Novel Actin Binding Drug with In Vivo Efficacy” (Antimicrobial Agents and Chemotherapy, 2018)

How the values were obtained:
[1] = system: rabbit skeletal muscle G-actin; test: Affinity pulldown with biotinylated alkyne-OF and streptavidin beads; assay type: binding; details: 24 μg G-actin, 8 μg alkyne-OF, azide-biotin, streptavidin beads, silver stain
Experimental: (§1) Purified rabbit skeletal muscle filamentous actin (catalog number AKF99) and G-actin (catalog number AKL95) were purchased from Cytoskeleton, Inc. Actin was reconstituted in Milli-Q water to achieve a stock concentration of 0.4 mg/ml in a buffer that consisted of 5 mM Tris-HCl (pH 8.0), 0.2 mM CaCl2, 0.2 mM ATP, 2 mM MgCl2, and 5% (wt/vol) sucrose as directed by the supplier. This solution was stored at −80°C in 50-μl aliquots until use. Immediately before use, each aliquot was thawed by placing it in a 37°C water bath for 5 min and then at room temperature. For all studies, 24 μg of F- or G-actin was used with 8 μg alkyne-OF. F-actin filaments were reacted with native occidiofungin for 15 min at room temperature at molar ratios of 1:10 (24 μg actin to 8 μg native occidiofungin) and 1:5 (24 μg actin to 4 μg native occidiofungin). As per the manufacturer’s instructions, Acti-stain 670 phalloidin (Cytoskeleton, Inc.) was used as a control in an in vitro actin filament binding study. Actin filaments treated with DMSO (solvent blank negative control) were stained and observed for comparison. The actin filaments were visualized on an Olympus FV1000 confocal microscope. Pulldown assays were performed using alkyne-OF with azide-biotin (Click-iT protein reaction buffer kit; Thermo Fisher Scientific), according to the manufacturer’s instructions. The proteins captured by biotinylated alkyne-OF on streptavidin beads were eluted by boiling in 50 µl of SDS sample loading buffer. The sample was electrophoresed through a 12% SDS gel, and protein bands were visualized by silver staining (Pierce Silver stain kit; Thermo Fisher Scientific) according to the manufacturer’s protocol. F- and G-actin treated with DMSO and native occidiofungin were used as the controls.

[2] = molecular target: T1, rabbit skeletal muscle F-actin (Oryctolagus cuniculus, UniProt P68135); test: as above; assay type: binding; details: 24 μg F-actin, 8 μg alkyne-OF, azide-biotin, streptavidin beads, silver stain
T1 construct: Purified rabbit skeletal muscle filamentous actin (catalog number AKF99); purchased Cytoskeleton, Inc. AKF99; host or cells: rabbit skeletal muscle (tissue-purified)
Experimental: as §1

occidiofungin
copurification/binding with G-actin [1]: directly bind to F- or G-actin
copurification/binding with G-actin ([1]; listed as native OF): actin was not detected in the control lanes
copurification/binding with F-actin [2]: directly bind to F- or G-actin
copurification/binding with F-actin ([2]; listed as native OF): actin was not detected in the control lanes
